Laboratory results taken from patent US20070071681A1, “Apparatus and method for computer modeling type 1 diabetes” (Entelos, Inc., priority 2005, published 2007).
Read-outs that look alike come from different tables or passages of the source.

Columns and labels:
[1] = test system: average virtual NOD mouse; assay: Simulation of therapy protocols in the average virtual NOD mouse (computer model of type 1 diabetes); conditions: expectation from published data
From the text: One application of a NOD mouse type 1 diabetes model is to improve understanding of type 1 diabetes pathogenesis in the NOD mouse. Model development therefore focused on islet β cell autoimmunity and tolerance, as well as related mechanisms and interventions. To provide for general immunologic function and not only progression to diabetes, the development effort included representation of several NOD mouse phenotypes. The first phenotype was an average diabetic virtual mouse. […] Typically, a simulation of the average virtual mouse concludes shortly after diabetes diagnosis, which is consistent with post-diabetic sacrifice of NOD mice in the laboratory. […] Additional virtual mice, each with different clinical behaviors and/or underlying pathophysiologies, have also been generated. Similarly, development of modals of type 1 diabetes in other mammals, such as humans, can include the development of various virtual patients representing normal animals or animals having varying degrees of severity or progression of type 1 diabetes.
Because diabetes is typically assessed by measuring blood or urinary glucose, blood glucose levels were represented in the model's clinical read-out. Hyperglycemia (a diabetes indicator) was defined as a glucose level in excess of a commonly used standard (e.g., 200, 250, 300, 350 mg/dl). Glucose control was regulated based on a mathematical relationship describing interactions between blood insulin and glucose concentrations.
These include (i) dynamics of diabetes onset, (ii) dynamics of pancreatic lymph node (PLN) lymphocyte activation and expansion, and (iii) dynamics of islet infiltrate.
Numerous interventions have been tested in the NOD mouse. A major purpose of implementing selected interventions is to provide constraints for the virtual mouse, where constraints are defined as additional behavioral criteria that the virtual mouse should reproduce in a manner substantially consistent with published data. […]

[2] = test system: BB rats; conditions: cited from earlier work
[3] = test system: NOD mouse; conditions: cited from earlier work; for Protection from diabetes: pre-diabetic NOD mice; for Protection in the NOD mouse: protective therapeutic interventions suggested to depend on NK cell activities
[4] = test system: recent onset diabetic patients; conditions: cited from earlier work; for Therapeutic response: insulin tolerization

Oral insulin: orally administered (porcine) insulin for induction of oral tolerance
Expected virtual mouse outcome ([1]; Oral insulin, Homann 1999 (1 mg), at 45 weeks): No diabetes at 45 | Expected virtual mouse outcome ([1]; Oral insulin, Zhang 1991 (1 mg), at 52 weeks): No diabetes at 52 weeks | Protection from diabetes [2]: not | Incidence ([3]; Oral insulin, Homann 1999 (1 mg), Rx 5-45 weeks, at 45 weeks, vs 63% control): 26% treated vs. | Incidence ([3]; Oral insulin, Zhang 1991 (0.1 mg), Rx 5-52 weeks, at 52 weeks, vs 49% control): 44% treated vs. | Incidence ([3]; Oral insulin, Zhang 1991 (1 mg), Rx 5-52 weeks, at 52 weeks, vs 49% control): 26% treated vs. | Protection against diabetes ([3]; oral administration of insulin, induction of oral tolerance): protect against diabetes | Protection from diabetes [3]: protection

NC(=O)c1cccnc1 [nicotinamide]
Protection from diabetes [2]: not | Protection from diabetes [3]: protection

Exogenous TGF-β: exogenous TGF-β delivered as 200 μg of pCMV-TGF-β1
Incidence ([3]; Exogenous TGF-β, Piccirillo 1998, 9-32 wks, 200 μg of pCMV-TGF-β1 every 2 wks, at 32 wks, vs 100% control): 42% vs. 100% control at 32 wks | Insulitis ([3]; Exogenous TGF-β, Piccirillo 1998): Reduced severity of insulitis | Other observations ([3]; Exogenous TGF-β, Piccirillo 1998, islet mRNA levels): Reduced mRNA levels of islet IL-12 & IFN-γ

poly(I:C)
Protection in the NOD mouse [3]: protective

insulin: insulin tolerization therapy tested in human clinical trials
Therapeutic response ([4]; general clinical trial population): responded poorly | Therapeutic response ([4]; patients characterized by high insulin autoantibody titers): better therapeutic responses

IFN-α
Protection in the NOD mouse [3]: protective

Exendin-4: exendin-4; enhances glucose-dependent insulin secretion
Expected virtual mouse outcome ([1]; Exendin-4, Ogawa 2004 protocol): No remission | Incidence ([3]; Exendin-4, Ogawa 2004, 7-17 days after diagnosis of diabetes, 12 nmol/kg for 4 consec. days twice): No remission

hOKT3γ1 (Ala-Ala): modified, dimeric non-FcR binding anti CD3 antibody used in human clinical trials
Human clinical trial results ([4]; recent onset diabetic patients, Herold 2002): promising

CN(C(=O)c1c(O)c2ccccc2n(C)c1=O)c1ccccc1 [linomide]
Protection in the NOD mouse [3]: protection
